For one data set, the system named is IL-6 mRNA. The settings on record: 40 μg/mL; in comparison to LPS-stimulated cells only.
Data set [1] has as its system LPS-stimulated RAW264.7 macrophages. The data set can be described thus: NO production of LPS-induced RAW264.7 (Griess method). The class given is cell-based. The settings on record: 40 μg/mL; LPS 10 ng/mL; LPS only 22 μM, baseline 12.8 μM.
A further data set has as its system iNOS mRNA. The settings on record: 40 μg/mL; in comparison to LPS-stimulated cells only.
The subject of the next data set is gastric mucosa. The settings on record: both, albino, mouse, in vivo, 3 days; for % Incidence of Ulcer Divided by 10 / Average Severity of Ulcer / Average of Ulcer Number / Number of Animals with Ulcer: po, 10 mg/kg. On the procedure: The ulcerogenic liability was determined in albino mice obeying the standard method.
Animals of either sex (pregnant females were excluded) weighing 20 –25 g were divided into 8 groups of 6 animals each. The animals fasted 18 h before drug administration.
80 administered orally for three successive days to fasted animals at a dose of 10 mg kg-1 (animal […]
The control group animals were given water only with few drops of Tween 80. The animals were sacrificed by cervical dislocation and the stomach was removed, opened along the greater curvature and rinsed with saline. The gastric mucosa was examined with a magnifying lens (10x) for the presence of lesions and ero sions. The ulcer index was calculated (Table 4) and the degree of ulcerogenic effect was expressed in terms of.
1. The percentage incidence of ulcers divided by 10.
2. Average number of ulcers per stomach.
3. Average severity of ulcers.
The ulcer index is the value that resulted from the sum of the above three values. […]

The subject of data set [2] is acetic acid-induced abdominal writhing. The data set can be described thus: acetic acid-induced abdominal writhing assay (peripheral analgesic). The data set is classed as in vivo, mice. As to conditions: for % Inhibition/Protection / Writing Reflex ± SE: 10 mg/kg indomethacin mol equivalent i.p.; for Potency: % inhibition/protection compared to indomethacin; for Writing Reflex ± SE: number of writhing counted for 30 min.

The test system of another data set is TNF-α mRNA. The settings on record: 40 μg/mL; in comparison to LPS-stimulated cells only.

The structures appear in SMILES notation.

Description for IL-6 mRNA: (§1) For this purpose, the mRNA levels of IL-6, TNF-α, and iNOS were measured using real-time qPCR (RT-qPCR).
(§2) Treatment of LPS-stimulated RAW264.7 macrophages was done with 40 µg/mL of the isolated
(§3) Evaluation of inflammatory mRNA expression levels
(§4) Inflammatory mRNA expression levels were evaluated using RT-qPCR (Applied Biosystems, CA, USA). Total RNA was extracted by lysing RAW264.7 cells using Qiazol Lysis Reagent. The extracted RNA was used to synthesize cDNA using RevertAid First Strand cDNA synthesis kit according to manufacturer’s protocol. The cDNA was then added with forward and reverse
(§5) primers, nuclease free water and maxima SYBR green mix (Thermo Fisher Scientific, MA, USA).
(§6) The inflammation-related genes of mRNA expression levels are as follows: IL-6, TNF-α, and
(§7) iNOS. All expression was normalized to GAPDH (endogenous control) and relative fold mRNA
(§8) expression levels were calculated using the comparative 2 −ΔΔCT method. The PCR reaction consists
(§9) of initiation stage at 95 °C for 10 min, after that 40 PCR cycles of d enaturation stage for 15 s at 95
(§10) °C and annealing and extension for 1 min at 60 °C.
Description for TNF-α mRNA: as §1, §2, §3, §4, §5, §6, §7, §8, §9, §10
Description for iNOS mRNA: as §1, §2, §3, §4, §5, §6, §7, §8, §9, §10

Regarding `COc1ccccc1-n1cc(COC(=O)C(C)c2ccc(CC(C)C)cc2)nn1` (centres unmarked) [Compound 5e, (1-(2-Methoxyphenyl)-1H-1,2,3-triazol-4-yl)methyl 2-(4-isobutylphenyl)propanoate], the “reduction in IL-6 mRNA levels” value with IL-6 mRNA was 82%. For the same molecule, the “LPS-stimulated NO production (nitrite)” value in data set [1] is recorded as “insignificant decrease”. Further, the “reduction in iNOS mRNA levels” value in the data set on iNOS mRNA is 42%. For the same molecule, in the data set on gastric mucosa, the “Ulcer Index” value came to 0, the “% Incidence of Ulcer Divided by 10” value came out at 0, the “Average Severity of Ulcer” value is 0 and the “Average of Ulcer Number” value came out at 0. Further, the “Number of Animals with Ulcer” value in the data set with gastric mucosa came to 0. Besides, in data set [2], the “% Inhibition/Protection” value is given as 63.3%, the Potency was 88.2% and the “Writing Reflex ± SE” value was determined as 14.7 ± 1.6. For the same molecule, in the data set on TNF-α mRNA, the “reduction in TNF-α mRNA levels” value is on record as 86%.

On to `Cc1ccc(-n2cc(COC(=O)C(C)c3ccc(CC(C)C)cc3)nn2)cc1` (centres unmarked) [Compound 5d, (1-(p-Tolyl)-1H-1,2,3-triazol-4-yl)methyl 2-(4-isobutylphenyl)propanoate], for which, in the data set on IL-6 mRNA, the “reduction in IL-6 mRNA levels” value was found to be 66.2%. Further, the “LPS-stimulated NO production (nitrite)” value in data set [1] is 1.45 ± 1.3 µM. Moreover, in the data set on iNOS mRNA, the “reduction in iNOS mRNA levels” value is recorded as 59%. In addition, in the data set on gastric mucosa, the “Ulcer Index” value stood at 0, the “% Incidence of Ulcer Divided by 10” value is 0, the “Average Severity of Ulcer” value came out at 0 and the “Average of Ulcer Number” value was found to be 0. In the data set on gastric mucosa, the “Number of Animals with Ulcer” value was 0. Moreover, in data set [2], the “% Inhibition/Protection” value is given as 82.5%, the Potency is listed as 114.9% and the “Writing Reflex ± SE” value is recorded as 7.0 ± 1.3. Also, in the data set on TNF-α mRNA, the “reduction in TNF-α mRNA levels” value came to 72%.

Take `C#CCOC(=O)C(C)c1ccc(CC(C)C)cc1` (centres unmarked) [Compound 3, Prop-2-yn-1-yl 2-(4-isobutylphenyl) Propanoate]: in the data set with gastric mucosa, the “Ulcer Index” value came to 4.33, the “% Incidence of Ulcer Divided by 10” value is 3.33, the “Average Severity of Ulcer” value is reported as 0.67 and the “Average of Ulcer Number” value worked out at 0.33. The “Number of Animals with Ulcer” value with gastric mucosa is on record as 2/6. Moreover, in data set [2], the “% Inhibition/Protection” value was 71.8%, the Potency is reported as 100.0% and the “Writing Reflex ± SE” value is reported as 11.3 ± 0.9.

Source of the values: publication PMC9965125, “New NSAID Conjugates as Potent and Selective COX-2 Inhibitors: Synthesis, Molecular Modeling and Biological Investigation” (Molecules, 2023).
